Assay results as given in US9724357B2, “Methods for preserving photoreceptor cell viability following retinal detachment” (Massachusetts Eye & Ear Infirmary, priority 2011, dated 2017).

Key:
Type in all cases: in vivo, Brown Norway rats
[1] = tested on: photoreceptor cells of detached retina (outer nuclear layer); experiment: TUNEL staining of photoreceptor death after experimental retinal detachment; conditions: administration started six hours after induction of retinal detachment; P=0.03; readout not given
From the text: (§1) In the examples described herein, all animal experiments adhered to the Association for Research in Vision and Ophthalmology Statement for the Use of Animals in Ophthalmic and Vision Research, and protocols were approved by the Animal Care Committee of the Massachusetts Eye and Ear Infirmary. Adult male Brown Norway rats (200 to 300 g) were purchased from Charles River Laboratories (Wilmington, Mass.). The rats were fed standard laboratory chow and allowed free access to water in an air-conditioned room with a 12 hour light/12 hour dark cycle.
(§2) Experimental retinal detachment was induced by subretinal injection of hyaluronic acid as previously described (Hisatomi T et al. (2001) AM. J. PATHOL. 158:1271-1278). […] Body temperature was monitored and the animals were kept on a heating pad during the procedure as well as during the recovery period. […]
(§3) All values disclosed below were expressed as the mean±SD. Statistical differences between two groups were analyzed by Mann-Whitney U test. […]
Photoreceptor death was assessed by TUNEL staining, which detects DNA fragmentation in apoptotic or necrotic nuclei. […] Fluorescence was imaged using a DM RXA microscope (Leica, Solms Germany) and digitally captured. The number of TUNEL-positive cells per mm^2 at the central area of the detached retina was counted in a masked fashion. […]

[2] = tested on: photoreceptor cells of detached retina (outer nuclear layer); experiment: Outer nuclear layer (ONL) thickness after experimental retinal detachment; conditions: 500 mg/kg/day i.p., mean±SD
From the text: as §1, §2, §3
Photoreceptor loss was evaluated by measuring the thickness of the outer nuclear layer (ONL). ONL thickness was determined using National Institutes of Health ImageJ software. Thickness was measured based on the outer boundaries of the DAPI nuclear stain. […]

[3] = tested on: TNF-α; experiment: TNF-α ELISA on retinal lysates after retinal detachment; conditions: 24 hours after retinal detachment; 500 mg/kg/day i.p.; vs vehicle
From the text: as §1
(§4) Experimental retinal detachment was induced by subretinal injection of hyaluronic acid as previously described (Hisatomi T et al. (2001) AM. J. PATHOL. 158:1271-1278). Briefly, rats were anesthetized with 100 μl of a mixture of 5 parts Ketamine (100 mg/ml, Phoenix Pharmaceutical, Inc., St Joseph, Mo.), 4 parts PBS and 1 part Xylazine (100 mg/ml, Lloyd Laboratories, Inc., Shenandoah, Iowa). Body temperature was monitored and the animals were kept on a heating pad during the procedure as well as during the recovery period. The pupils were dilated with drops of phenylephrine 5%/tropicamide 0.5%. […]
(§5) In order to measure inflammatory cytokines, eight eyes from each group (animals without retinal detachment as well as animals with retinal detachment that received vehicle or TUDCA) were analyzed using ELISA assays. […]

[4] = tested on: MCP-1; experiment: MCP-1 ELISA on retinal lysates after retinal detachment; conditions: samples 24 and 72 hours after retinal detachment (FIG. 2B: one day); 500 mg/kg/day i.p.; vs vehicle
From the text: as §1, §4, §5

[5] = tested on: CD68+ cells; experiment: Macrophage infiltration (CD68+ immunostaining) in detached retina; conditions: one day after induction of retinal detachment; 500 mg/kg/day i.p.; vs vehicle
From the text: as §1
as §4, with “period.” for “period. The pupils were dilated with drops of phenylephrine 5%/tropicamide 0.5%.”
In order to assess macrophage infiltration in detached retinas, six eyes from each group (rats treated with vehicle or TUDCA) were analyzed. […] The number of CD68+ cells per […] was determined using the same method as described above for the quantification of TUNEL-positive cells.

[6] = tested on: protein carbonyl content; experiment: Protein carbonyl content ELISA (oxidative stress) in retina after retinal detachment; conditions: one day (24 hours) after retinal detachment; 500 mg/kg/day i.p.; vs vehicle
From the text: as §1
as §4, with “period.” for “period. The pupils were dilated with drops of phenylephrine 5%/tropicamide 0.5%.”
In order to assess the effect of TUDCA treatment on oxidative stress, the protein carbonyl content in the retina was determined Eight eyes from each group (animals without retinal detachment as well as animals with retinal detachment that received vehicle or TUDCA) were analyzed using ELISA assays. […]

[7] = tested on: caspase 2; experiment: Caspase 2 colorimetric activity assay in retinal lysates after retinal detachment; conditions: retinal lysates 24 hours after retinal detachment; 500 mg/kg/day i.p.; P<0.05
From the text: as §1
as §4, with “period.” for “period. The pupils were dilated with drops of phenylephrine 5%/tropicamide 0.5%.”
(§6) The caspase assays were performed on the retina of animals without retinal detachment (n=6) as well as animals with retinal detachment that received vehicle (n=8) or TUDCA (n=8). […] Optical density was assessed at 405 nm and normalized for protein concentration, initial optical density, and compared to a sample filled with buffer. […]

[8] = tested on: caspase 3; experiment: Caspase 3 colorimetric activity assay in retinal lysates after retinal detachment; conditions: retinal lysates 24 hours after retinal detachment; 500 mg/kg/day i.p.; P<0.05
From the text: as §1
as §4, with “period.” for “period. The pupils were dilated with drops of phenylephrine 5%/tropicamide 0.5%.”
as §6

[9] = tested on: caspase 9; experiment: Caspase 9 colorimetric activity assay in retinal lysates after retinal detachment; conditions: retinal lysates 24 hours after retinal detachment; 500 mg/kg/day i.p.; P<0.05
From the text: as §1
as §4, with “period.” for “period. The pupils were dilated with drops of phenylephrine 5%/tropicamide 0.5%.”
as §6

[10] = tested on: caspase 8; experiment: Caspase 8 colorimetric activity assay in retinal lysates after retinal detachment; conditions: retinal lysates 24 hours after retinal detachment; 500 mg/kg/day i.p.
From the text: as §1
as §4, with “period.” for “period. The pupils were dilated with drops of phenylephrine 5%/tropicamide 0.5%.”
as §6

[11] = tested on: caspase 11; experiment: Caspase 11 western blot of vitreous and neural retina after retinal detachment; conditions: samples three days after retinal detachment, 500 mg/kg/day i.p.
[12] = tested on: CHOP; experiment: CHOP western blot (ER stress) of vitreous and neural retina after retinal detachment; conditions: three days after retinal detachment, systemic administration 500 mg/kg/day i.p.
From the text: as §1
as §4, with “0.5%. A partial retinal detachment was induced with a transscleral, subretinal injection of approximately 50 μl of 1% sodium hyaluronate (Provisc, Alcon Laboratories Inc., Fort Worth, Tex.).” for “0.5%.”

C[C@H](CCC(=O)NCCS(=O)(=O)O)[C@H]1CC[C@H]2[C@@H]3[C@@H](O)C[C@@H]4C[C@H](O)CC[C@]4(C)[C@H]3CC[C@]12C [TUDCA, tauroursodeoxycholic acid]
neuroprotection with delayed treatment (FIG. 1D) [1]: showed efficient neuroprotection | ONL thickness ratio (normalized, detached/attached retina) ([2]; five days after detachment, vehicle 0.57±0.04, P=0.002): 0.79±0.03 | ONL thickness ratio (normalized, detached/attached retina) ([2]; three days of retinal detachment, vehicle 0.65±0.03, P=0.0016): 0.84±0.03 | effect on levels of TNF-α [3]: did not affect | effect on levels of MCP-1 [4]: did not affect | effect on macrophage infiltration (CD68+ cells) [5]: did not affect macrophage infiltration | effect on protein carbonyl content [6]: prevented an increase in protein carbonyl content | effect on retinal detachment-induced activity of caspase 2 [7]: significantly decreased | effect on retinal detachment-induced activity of caspase 3 [8]: significantly decreased | effect on retinal detachment-induced activity of caspase 9 [9]: significantly decreased | effect on activity of caspase 8 [10]: did not alter | effect on activity of caspase 11 [11]: did not alter | effect on CHOP expression [12]: did not significantly alter CHOP expression
